Data set [1] addresses T1, human Kv1.1/Kvβ1 potassium ion channel complex (Homo sapiens, UniProt Q09470).
T1 construct: expressed in transfected cells; host or cells: Xenopus oocytes injected with cRNA
The data set is described as follows: Xenopus oocytes current assay (inhibition of inactivation, voltage clamp). Type of data set: cell-based. The following applies: Xenopus oocytes expressing hKv1.1/hKvβ1, relative to control bath solution; for activation at 50 µM: read-out: Percent Increase in Steady State Current Of human Kv1.1/Kvβ1 @ a concentration of 50 μM. Here is the method:
The compounds of formula I were examined for their ability to inhibit the inactivation of the human Kv1.1/Kvβ1 potassium ion channel complex in vitro using electrophysiological current recordings on inactivating Kv1.1/Kvβ1 channels expressed in Xenopus oocytes. Xenopus oocytes were harvested from frogs under general anesthesia using aseptic techniques. Oocytes were treated with 2 mg/ml collagenase for 1–1.5 hr, defolliculated, and injected with 40 nL cRNA (a mixture of hky1.1 and hKvβ1) produced using standard molecular biological techniques (Sambrook, et al., 1989, Molecular Cloning: A Laboratory Manual). The concentration of hKv1.1/hKvp1 cRNA varies, but was generally about 50 ng/μL hKv1.1 and […] hKβ1.
Currents were recorded using standard voltage clamp amplifiers at room temperature. Recordings were performed in the bath solution “ND-96” containing 96 mM NaCl, 2 mM KCl, 1 mm CaCl2, 1 mM MgCl2, 10 mM HEPES and […] Gentamycin (pH=7.6). The pipette (electrode) solution generally consisted of […]. Electrodes were made from WPI TW150F-4 borosilicate glass (or equivalent) and typically had resistances of 0.5–1.5 Mohms. The standard current-voltage (IV) pulse protocol consisted of voltage steps from −60 mV to +50 mV, in 10 mV increments for 200 ms, at a frequency of one IV set per 2 minutes. Data were digitized and analyzed by standard software packages.
Solutions of the test compounds consisting of test compounds dissolved in bath solution were applied by bath perfusion using gravity or pump-driven flow. A minimum of 2 mL (10 times the bath volume) over 3 minutes were flowed for each compound concentration tested. Data were averaged across at least 3 cells tested for each concentration.
Test compounds were examined for their ability to inhibit the inactivation of the steady state portion of the IV curve.

Structures can show the parent of a compound that is named as a salt.

T1 sequence (Q09470 whole entry, one chain of several): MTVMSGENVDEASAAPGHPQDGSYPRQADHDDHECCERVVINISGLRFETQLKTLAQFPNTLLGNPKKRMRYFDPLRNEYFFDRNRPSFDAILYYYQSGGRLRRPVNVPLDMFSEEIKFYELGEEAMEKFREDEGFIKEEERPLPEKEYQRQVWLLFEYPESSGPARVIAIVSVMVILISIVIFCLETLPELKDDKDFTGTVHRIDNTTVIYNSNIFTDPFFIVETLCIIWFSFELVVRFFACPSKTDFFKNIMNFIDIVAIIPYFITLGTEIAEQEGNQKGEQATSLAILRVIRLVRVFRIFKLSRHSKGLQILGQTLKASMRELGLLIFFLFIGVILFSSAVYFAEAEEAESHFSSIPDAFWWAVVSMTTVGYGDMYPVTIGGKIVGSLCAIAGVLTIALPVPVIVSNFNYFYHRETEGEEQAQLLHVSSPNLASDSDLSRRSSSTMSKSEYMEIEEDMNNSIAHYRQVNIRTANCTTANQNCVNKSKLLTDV

As to `O=C(Nc1ccc(C(F)(F)F)cc1)C1C(=O)C2CCC(C2)C1=O` (stereo not drawn) (as salt: sodium) [Example 26, N-[4-(trifluoromethyl)phenyl]-2,4-dioxobicyclo[3.2.1]octane-3-carboxamide], the melting point (in general, the temperature, or range, at which the solid turns liquid) fell in the range of 250 to 260 °C.

Take `CC1(C)C2CC1C(=O)C(C(=O)Nc1ccc(C(F)(F)F)cc1)C2=O` (stereo not drawn) (as salt: sodium) [Example 28, 6,6-Dimethyl-2,4-dioxo-N-[4-(trifluoromethyl)phenyl]bicyclo[3.1.1]heptane-3-carboxamide]: the melting point was over 230 °C.

For `CC1(C)C2CC1C(=O)C(C(=O)Nc1cccc(C(F)(F)F)c1)C2=O` (stereo not drawn) (as salt: sodium) [Example 29, 6,6-Dimethyl-2,4-dioxo-N-[3-(trifluoromethyl)phenyl]bicyclo[3.1.1]heptane-3-carboxamide], the melting point is over 230 °C.

`CC1(C)C2CC1C(=O)C(C(=O)Nc1ccc(F)c(Cl)c1)C2=O` (stereo not drawn) (as salt: sodium) [Example 30, 6,6-Dimethyl-2,4-dioxo-N-(3-chloro-4-fluorophenyl)bicyclo[3.1.1]heptane-3-carboxamide] registered a melting point of over 230 °C.

Consider `CC1(C)C2CC1C(=O)C(C(=O)Nc1ccc(F)c(C(F)(F)F)c1)C2=O` (stereo not drawn) (as salt: sodium) [Example 31, 6,6-Dimethyl-2,4-dioxo-N-[4-fluoro-3 (trifluoromethyl)phenyl]bicyclo[3.1.1]heptane-3-carboxamide], for which the melting point is over 230 °C.

Regarding `CC1(C)C2CC1C(=O)C(C(=O)Nc1ccc(Cl)c(Cl)c1)C2=O` (stereo not drawn) (as salt: sodium) [Example 32, 6,6-Dimethyl-2,4-dioxo-N-(3,4-dichlorophenyl)bicyclo[3.1.1]heptane-3-carboxamide], the melting point was over 230 °C.

As to `CC1(C)C2CC1C(=O)C(C(=O)Nc1cc(Cl)cc(Cl)c1)C2=O` (stereo not drawn) (as salt: sodium) [Example 33, 6,6-Dimethyl-2,4-dioxo-N-(3,5-dichlorophenyl)bicyclo[3.1.1]heptane-3-carboxamide], the melting point was over 230 °C.

For `CC1(C)C2CC1C(=O)C(C(=O)Nc1ccc(F)cc1)C2=O` (stereo not drawn) (as salt: sodium) [Example 34, 6,6-Dimethyl-2,4-dioxo-N-(4-fluorophenyl)bicyclo[3.1.1]heptane-3-carboxamide], the melting point was over 230 °C.

For `CC1(C)C2CC1C(=O)C(C(=O)Nc1cccc(Cl)c1)C2=O` (stereo not drawn) (as salt: sodium) [Example 35, 6,6-Dimethyl-2,4-dioxo-N-(3-chlorophenyl)bicyclo[3.1.1]heptane-3-carboxamide], the melting point is over 230 °C.

The molecule `CC1(C)C2CC1C(=O)C(C(=O)Nc1ccc(Cl)cc1)C2=O` (stereo not drawn) (as salt: sodium) [Example 36, 6,6-Dimethyl-2,4-dioxo-N-(4-chlorophenyl)bicyclo[3.1.1]heptane-3-carboxamide] had a melting point of over 230 °C.

Consider `O=C(Nc1cc(C(F)(F)F)cc(C(F)(F)F)c1)C1C(=O)C2CCC(CC2)C1=O` (stereo not drawn) (as salt: sodium) [Example 37, N-[3,5-bis(trifluoromethyl)phenyl]-2,4-dioxobicyclo[3.2.2]nonane-3-carboxamide], for which the melting point is 286 to 288 °C.

As for `CC1(C)C2CC[C@]1(C)C(=O)C(C(=O)Nc1cc(C(F)(F)F)cc(C(F)(F)F)c1)C2=O` (stereo partly drawn) [Example 1, (1S)-N-[3,5-bis(trifluoromethyl)phenyl]-1,8,8-trimethyl-2,4-dioxobicyclo[3.2.1] octane-3-carboxamide], the melting point lay in the range of 68 to 72 °C. The activation at 50 µM in data set [1] stood at 16%.

Consider `CC1(C)C2CC[C@]1(C)C(=O)C(C(=O)Nc1cc(Cl)cc(Cl)c1)C2=O` (stereo partly drawn) [Example 3, (1S)-N-(3,5-dichlorophenyl)-1,8,8-trimethyl-2,4-dioxobicyclo[3.2.1]octane-3-carboxamide], for which the melting point lay within 112 to 114 °C.

With `CC1(C)C2CC[C@]1(C)C(=O)C(C(=O)Nc1ccc(Cl)c(Cl)c1)C2=O` (stereo partly drawn) [Example 4, (1S)-N-(3,4-dichlorophenyl)-1,8,8-trimethyl-2,4-dioxobicyclo[3.2.1]octane-3-carboxamide], the melting point lay in the range of 88 to 90 °C. In data set [1], the activation at 50 µM is 11%.

For `CC1(C)C2CC[C@]1(C)C(=O)C(C(=O)Nc1cccc([N+](=O)[O-])c1)C2=O` (stereo partly drawn) [Example 5, (1S)-N-(3-nitrophenyl)-1,8,8-trimethyl-2,4-dioxobicyclo[3.2.1]octane-3-carboxamide], the melting point was 100 to 102 °C.

Take `CC1(C)C2CC[C@]1(C)C(=O)C(C(=O)Nc1ccc([N+](=O)[O-])cc1)C2=O` (stereo partly drawn) [Example 6, (1S)-N-(4-nitrophenyl)-1,8,8-trimethyl-2,4-dioxobicyclo[3.2.1]octane-3-carboxamide]: the melting point is 170 to 172 °C.

In turn, `CC1(C)C2CC[C@]1(C)C(=O)C(C(=O)Nc1ccc(Cl)c(C(F)(F)F)c1)C2=O` (stereo partly drawn) [Example 7, (1S)-N-[4-chloro-3-(trifluoromethyl)phenyl]-1,8,8-trimethyl-2,4-dioxobicyclo [3.2.1]octane-3-carboxamide] showed a melting point of 118 to 120 °C.

For `Cc1ccc(NC(=O)C2C(=O)C3CC[C@](C)(C2=O)C3(C)C)cc1` (stereo partly drawn) [Example 11, (1S)-N-[4-methylphenyl]-1,8,8-trimethyl-2,4-dioxobicyclo[3.2.1]octane-3-carboxamide], the melting point lay within 80 to 82 °C.

As to `CC1(C)C2CC[C@@]1(C)C(=O)C(C(=O)Nc1ccc(Cl)c(Cl)c1)C2=O` (stereo partly drawn) [Example 14, (1R)-N-(3,4-dichlorophenyl)-1,8,8-trimethyl-2,4-dioxobicyclo[3.2.1]octane-3-carboxamide], the melting point was in the range of 89 to 91 °C.

Regarding `CC1(C)C2CC[C@@]1(C)C(=O)C(C(=O)Nc1cccc(C(F)(F)F)c1)C2=O` (stereo partly drawn) [Example 17, (1R)-N-[3-(trifluoromethyl)phenyl]-1,8,8-trimethyl-2,4-dioxobicyclo[3.2.1] octane-3-carboxamide], the melting point lay within 66 to 68 °C.

As for `O=C(Nc1ccc(Cl)c(Cl)c1)C1C(=O)C2CCC(C2)C1=O` (stereo not drawn) [Example 24], in data set [1], the “Percent Increase in Steady State Current Of human Kv1.1/Kvβ1 @ a concentration of 50 μM” value is 28%.

Consider `CC1(C)C2CC1C(=O)C(C(=O)Nc1ccc(C(F)(F)F)cc1)C2=O` (stereo not drawn) [Example 28, 6,6-Dimethyl-2,4-dioxo-N-[4-(trifluoromethyl)phenyl]bicyclo[3.1.1]heptane-3-carboxamide], for which the activation at 50 µM in data set [1] amounted to 190%.

In the case of `CC1(C)C2CC1C(=O)C(C(=O)Nc1cccc(C(F)(F)F)c1)C2=O` (stereo not drawn) [Example 29, 6,6-Dimethyl-2,4-dioxo-N-[3-(trifluoromethyl)phenyl]bicyclo[3.1.1]heptane-3-carboxamide], the activation at 50 µM in data set [1] was 67%.

`CC1(C)C2CC1C(=O)C(C(=O)Nc1ccc(F)c(Cl)c1)C2=O` (stereo not drawn) [Example 30, 6,6-Dimethyl-2,4-dioxo-N-(3-chloro-4-fluorophenyl)bicyclo[3.1.1]heptane-3-carboxamide]: the activation at 50 µM in data set [1] worked out at 124%.

Consider `CC1(C)C2CC1C(=O)C(C(=O)Nc1ccc(F)c(C(F)(F)F)c1)C2=O` (stereo not drawn) [Example 31, 6,6-Dimethyl-2,4-dioxo-N-[4-fluoro-3 (trifluoromethyl)phenyl]bicyclo[3.1.1]heptane-3-carboxamide], for which the activation at 50 µM in data set [1] was 282%.

`CC1(C)C2CC1C(=O)C(C(=O)Nc1ccc(Cl)c(Cl)c1)C2=O` (stereo not drawn) [Example 32, 6,6-Dimethyl-2,4-dioxo-N-(3,4-dichlorophenyl)bicyclo[3.1.1]heptane-3-carboxamide]: in data set [1], the activation at 50 µM stood at 311%.

As to `CC1(C)C2CC1C(=O)C(C(=O)Nc1cc(Cl)cc(Cl)c1)C2=O` (stereo not drawn) [Example 33, 6,6-Dimethyl-2,4-dioxo-N-(3,5-dichlorophenyl)bicyclo[3.1.1]heptane-3-carboxamide], in data set [1], the activation at 50 µM was 326%.

Turning to `CC1(C)C2CC1C(=O)C(C(=O)Nc1ccc(F)cc1)C2=O` (stereo not drawn) [Example 34, 6,6-Dimethyl-2,4-dioxo-N-(4-fluorophenyl)bicyclo[3.1.1]heptane-3-carboxamide], in data set [1], the activation at 50 µM worked out at 94%.

As to `CC1(C)C2CC1C(=O)C(C(=O)Nc1cccc(Cl)c1)C2=O` (stereo not drawn) [Example 35, 6,6-Dimethyl-2,4-dioxo-N-(3-chlorophenyl)bicyclo[3.1.1]heptane-3-carboxamide], the activation at 50 µM in data set [1] is 107%.

On to `CC1(C)C2CC1C(=O)C(C(=O)Nc1ccc(Cl)cc1)C2=O` (stereo not drawn) [Example 36, 6,6-Dimethyl-2,4-dioxo-N-(4-chlorophenyl)bicyclo[3.1.1]heptane-3-carboxamide], for which, in data set [1], the activation at 50 µM was 125%.

With `O=C(Nc1cc(C(F)(F)F)cc(C(F)(F)F)c1)C1C(=O)C2CCC(CC2)C1=O` (stereo not drawn) [Example 37, N-[3,5-bis(trifluoromethyl)phenyl]-2,4-dioxobicyclo[3.2.2]nonane-3-carboxamide], the activation at 50 µM in data set [1] was determined as 68%.
